Measured values taken from patent US8735150B2, “Methods for detecting embryonic stem cells, induced pluripotent stem cells, or cells undergoing reprogramming to produce induced pluripotent stem cells” (New York University, priority 2010, dated 2014).

How the values were obtained:
[1] = test system: iPSC; assay: CDy1 staining of iPSC colonies generated from Oct4-GFP transgenic mouse MEF; assay type: cell-based
Experimental: The retroviral packaging cell, PlatE cell, was maintained in DMEM containing 10% FBS, 100 U/ml penicillin, 100 μg/ml streptomycin, 10 μg/mlblasticidin S, and 1 μg/ml puromycin. For the generation of retroviruses, 40 μg of each retroviral vector expressing each mouse Oct4, Sox2, Klf4, and c-Myc was transfected together using Lipofectamine™ 2000 (Invitrogen, Carlsbad, Calif.) into PlatE cells plated at a density of 8×10^6 cells/10 cm cell culture dish and cultured overnight in DMEM containing 10% FBS. Medium was changed five hours after transfection to normal maintenance medium and incubated further in a humidified atmosphere of 5% CO2 and 95% air at 37° C. Culture supernatant was harvested 48 hours after transfection, filtered through a 0.45 μm syringe filter, concentrated by using amicon ultra-15 Centrifugal filter units (Millipore, Billerica, Mass.), and stored at −80° C. until use. For reprogramming, MEFs prepared from E13.5 B6; CBA-Tg(Pou5f1-EGFP)2Mnn/J mouse (Jackson Laboratory, Bar Harbor, Me.) embryo were infected with retrovirus mixture eight hours later. Polybrene (Sigma-Aldrich, St. Louis, Mo.) was added at a concentration of 10 μg/ml to increase virus adsorption. Infected MEFs were harvested 48 hours later by trypsinization and plated onto mytomycin C treated MEF feeder cells. The cells were maintained in mESC culture medium that was changed every day until designated time points.
The reprogramming was performed in a 6-well culture dish by retroviral introduction of four transcriptions factors: Oct4, Sox2, Klf4, and c-Myc (Takahashi et al., “Induction of Pluripotent Stem Cells from Mouse Embryonic and Adult Fibroblast Cultures by Defined Factors,” Cell, 126(4):663-676 (2006), which is hereby incorporated by reference in its entirety). iPSC generation was verified by GFP expression, alkaline phosphatase assay, and immunostaining of SSEA-1 at 17 days post infection (“dpi”). […] When the 155 colonies grown in 6-well plate cells were treated with CDy1 at 17 dpi, 101 colonies (65%) were both CDy1 and GFP positive, 26 (17%) were CDy1-only positive, 4 (3%) were GFP-only positive and 24 (15%) were negative both for CDy1 and GFP, despite the fact that the morphology of the colonies was indistinguishable (FIG. 9).
In a cell culture treated with CDy1 at an earlier time point of iPSC generation (10 dpi), increasing numbers of CDy1-stained colonies started to show GFP signal during the following days (FIG. 10A). To perform a more systematic analysis, the cells were stained with CDy1 at 2 dpi (i.e., when iPSC was not distinguishable by any means) and the CDy1 and GFP signals were tracked by daily acquisition of cell images using an ImageXpress^MICRO system. At 10 dpi, when small colonies started to appear, 342 CDy1-positive but GFP-negative colonies were selected and their GFP expression was followed until 25 dpi. An increasing number of colonies started to express GFP during this period, and 338 (99%) out of the 342 tracked colonies were GFP-positive at 25 dpi (FIG. 10B).

[2] = test system: cells undergoing reprogramming to induced pluripotent stem cells (Oct4-GFP transgenic MEF); assay: FACS isolation of cells undergoing reprogramming with CDy1 and counting of GFP-positive iPS cell colonies; assay type: cell-based, mouse; conditions: sorted by FACS at 10 dpi, 7% of total cell number
Experimental: Oct4-GFP transgenic mouse embryonic fibroblasts (MEF) transfected with retrovirus expressing Oct4, Sox2, Klf4, and c-Myc were incubated with CDy1 at 10 days post infection (dpi). The cells were harvested using trypsin-EDTA and CDy1^bright and CDy1^dim cells defined as 7% of the total cell number at each end were collected by FACS, plated in culture media, and allowed to grow until 20 dpi for counting the number of induced pluripotent stem (“iPS”) cell colonies which were identified by GFP signal (FIG. 15A).
Among the many cell colonies observed in the bright field images, GFP signal was detected from some of them by fluorescence excitation (FIG. 15B).

[3] = test system: mESC; assay: Comparison of CDy1 and ALDEFLUOR staining in mESC; assay type: cell-based, mouse; conditions: fluorescence microscopy
Experimental: (§1) In this experiment, the cells cultured on 6-well plates were incubated with 1 μM ALDEFLUOR® for one hour at 37° C. and then washed with PBS three times before ALDEFLUOR® assay buffer was added. Bright field (“B.F”) and fluorescence (FITC filter for ALDEFLUOR® and TRITC filter for CDy1) images were taken using a Nikon ECLIPSE Ti fluorescence microscope (Scale bars, 100 μm).
(§2) Among the few fluorescent dyes used for stem cell staining (Zijlmans et al., “Modification of Rhodamine Staining Allows Identification of Hematopoietic Stem Cells with Preferential Short-term or Long-term Bone Marrow-Repopulating Ability,” Proc. Natl. Acad. Sci. USA, 92:8901-8905 (1995), which is hereby incorporated by reference in its entirety) is ALDEFLUOR® which employs a fluorescent substrate BODIPY-aminoacetaldehyde for aldehyde dehydrogenase (ALDH)1A1 (Storms et al., “Isolation of Primitive Human Hematopoietic Progenitors on the Basis of Aldehyde Dehydrogenase Activity,” Proc. Natl. Acad. Sci. USA, 96: 9118-9123 (1999), which is hereby incorporated by reference in its entirety). It has been used to identify and isolate certain types of stem cells including hematopoietic, neural, and mammary stem cells as well as cancer stem cells. Whether or not ALDEFLUOR® stains ESC has not been known. […] The stemness of hESC BG01V used in this study was verified by immunocytochemical staining of TRA-1-60 (FIG. 14).

[4] = test system: human lung cancer cell line H522; assay: Comparison of CDy1 and ALDEFLUOR staining in H522; assay type: cell-based; conditions: fluorescence microscopy
Experimental: as §1, §2

Structure (SMILES): CCCCN(CCCC)c1ccc2c(-c3cccc(CN4CCOCC4)c3)c3ccc(=N)cc-3oc2c1 [CDy1]
- colonies CDy1-only positive (number) ([1]; 17 dpi, of 155 colonies): 26
- colonies CDy1-only positive (percent) ([1]; 17 dpi, of 155 colonies): 17%
- colonies GFP-only positive (number) ([1]; 17 dpi, of 155 colonies): 4
- colonies GFP-only positive (percent) ([1]; 17 dpi, of 155 colonies): 3%
- colonies both CDy1 and GFP positive (number) ([1]; 17 dpi, of 155 colonies): 101
- colonies both CDy1 and GFP positive (percent) ([1]; 17 dpi, of 155 colonies): 65%
- colonies negative both for CDy1 and GFP (number) ([1]; 17 dpi, of 155 colonies): 24
- colonies negative both for CDy1 and GFP (percent) ([1]; 17 dpi, of 155 colonies): 15%
- colonies GFP-positive at 25 dpi (percent) ([1]; of 342 CDy1-positive but GFP-negative colonies selected at 10 dpi): 99%
- colonies GFP-positive at 25 dpi (number) ([1]; of 342 CDy1-positive but GFP-negative colonies selected at 10 dpi, stained at 2 dpi): 338
- GFP-positive iPS cell colonies from CDy1dim cells [2]: no colonies
- GFP-positive iPS cell colonies per well from CDy1bright cells [2]: 51 colonies per well
- staining of mESC [3]: stained both
- staining of H522 [4]: not
